Measurements: patent US11426441B2, “Composition comprising protein phosphatase 1 inhibitory peptide for treating vascular diseases” (BethphaGen Inc., priority 2016, dated 2022)
No end group written: not given here.

Assays:
SERCA2a = SERCA2a level and stability in RASMCs (immunostaining, western blotting); type: cell-based, rat; conditions: synthetic conditions, 3 μM peptide
Protocol: Rat aortic smooth muscle cells (RASMCs) were fixed in 4% (w/v) paraformaldehyde at room temperature for 10 min, washed with PBS, and then transmitted with 0.1% (v/v) Triton X-100 in PBS for 40 min. After washing and blocking with 3% (w/v) BSA in PBS, the cells were incubated overnight at room temperature with antibodies against SERCA2a (1:250), SERCA2b (1:250), and PCNA (1:50). On the following day, the cells were washed with PBS and incubated with anti-rabbit and anti-mouse IgG conjugated to Alexa Fluor 488 and 594, respectively, for 1 hour at room temperature. The cells were treated with FluoroGuard antifade reagent (Bio-Rad, Hercules, Calif., USA), and the coverslips were examined under a fluorescent microscope.
(§1) Vascular smooth muscle cells (VSMCs) were homogenized in a minimal volume of 50 mM Tris-HCl, pH 7.4, supplemented with a broad-spectrum protease inhibitor cocktail (Calbiochem). The proteins were separated by SDS-PAGE and then transferred to polyvinylidene fluoride membranes (Schleicher & Schuell). After blocking with 5% (w/v) non-fat milk for 1 hour and washing with TBST, the membranes were incubated with antibodies against SERCA2a, SERCA2b (21st century biochemical), PCNA (abcam), GAPDH (Sigma-Aldrich), phospho-eNOS, eNOS, phospho-eIF2α, eIF2α (cell signaling), Vimentin, α-SMA, BMPR2 (Santa cruz), phospho-Akt, Akt (cell signaling), phospho-phospholamban (Merck), and Phospholamban (cell signaling). The membranes were then incubated with horseradish peroxidase-conjugated secondary antibodies (Jackson ImmunoResearch, West Grove, Pa., USA) and developed using a chemiluminescent substrate (Dogen). The blots were scanned and quantified using LAS software.
RASMCs were cultured in DMEM supplemented with 0.1% (v/v) FBS (Contractile) or in DMEM supplemented with 10% (v/v) FBS (Synthetic) in the presence of 3 μM control or ψPLB-SE peptide. Cycloheximide (Sigma) was added to media to a final concentration of 5 μg/ml. Cells were harvested after 0, 3, and 5 days of incubation and their protein extracts were subjected to western blotting.

eNOS and Akt = eNOS and Akt phosphorylation in PAECs (western blotting); type: cell-based
Protocol: FIGS. 16a, 16b and 16c. (16a-16b) PAECs were treated with 3 μM ψPLB-SE for 1 hour, and protein expression was quantitatively analyzed through western blotting using antibodies against Phospho-eNOS (ser1177), total eNOS, phospho-Akt (Ser473, Thr308), total Akt, and GAPDH. (16c) The pulmonary tissue lysate was subjected to immunoprecipitation using PP1 antibody to investigate the interactions of PP1 with eNOS and Akt depending on the presence or absence of the treatment with ψPLB-SE using respective antibodies therefor.
FIGS. 17a, 17b and 17c. (17a) PAECs were treated with 50 μM LY294002, a PI3K inhibitor, for 24 hours, and then treated with 3 μM ψPLB-SE for 1 hour. Protein expression was quantitatively analyzed through western blotting using antibodies against Phospho-eNOS (ser1177), total eNOS, phospho-Akt (Ser473, Thr308), total Akt, and GAPDH. (17b) PAECs were treated with 10 μM inhibitor IV, an Akt inhibitor, for 2 hours, and then treated with 3 μM ψPLB-SE for 1 hour. Protein expression was quantitatively analyzed through western blotting using antibodies against total eNOS and GAPDH. (17c) PAECs were treated with 100 nM OA, a PP1 inhibitor, for 24 hours, and then treated with 3 μM ψPLB-SE for 1 hour. Protein expression was quantitatively analyzed through western blotting using antibodies against Phospho-eNOS (ser1177), total eNOS, phospho-Akt (Ser473, Thr308), total Akt, and GAPDH.
ψPLB-SE (RAE16TIEMPQ; SEQ ID NO: 2) was derived from the PLB protein sequence surrounding the Ser16 phosphorylation site. To facilitate uptake into cells, the peptide was conjugated to the cell penetrating peptide dNP2 ([…]; SEQ ID NO: 21) or TAT (YGRKKRRQRRR; SEQ ID NO: 22). The peptides used in the present invention were PLB-SE (RAETIEMPQ; SEQ ID NO: 2) and control peptide (RASTIEMPQ; SEQ ID NO: 23). PLB-SE and cell penetrating peptide were connected by a linker peptide (GGG; SEQ ID NO: 24) The peptides (purity of 95% or higher, AnyGen, Gwangju, Korea) was resuspended in double-distilled water or physiological saline at a stock concentration of 3 mM (cells), 2.5 mg/ml (rats), or 500 μg/ml (mice). The rats were treated with 1 mg/kg peptides and mice were treated with 2 mg/kg peptides. The rat aortic smooth muscle cells (RASMCs), human coronary smooth muscle cells (HCSMCs), pulmonary arterial endothelial cells (PAECs), and pulmonary arterial smooth muscle cells (PASMCs) were treated with the peptides at a final concentration of 3 μM for 1 hour. The PI3K inhibitor LY294002 (Millipore, USA), the Akt inhibitor Inhibitor IV (Calbiochem, USA), and the PP1 inhibitor okadaic acid (Sigma Aldrich, USA), used in the experiments using pulmonary arterial endothelial cells (PAECs), were purchased. For the monocrotaline aqueous solution, the monocrotaline powder (Sigma Aldrich, USA) was dissolved in a small amount of a 1 M hydrochloric acid solution (HCL), diluted with sterilized distilled water, and adjusted to pH 7.35 by addition of sodium hydroxide (NaOH). The animals were bred and observed in the same conditions as in the control group during the experiment periods. In addition, the calcium ionophore A23187 and the calpain I and II inhibitors MDL28170 and […] were purchased from Sigma-Aldrich (St. Louis, Mo., USA).
as §1, with “The membranes were then incubated with horseradish peroxidase-conjugated secondary antibodies (Jackson ImmunoResearch, West Grove, Pa., USA) and developed using a chemiluminescent substrate (Dogen). The blots were scanned and quantified using LAS software.” left out

RAETIEMPQ (not fully specified) [ψPLB-SE, 9-mer PP1 decoy peptide mimicking phosphorylated PLB; conjugated via GGG linker to cell penetrating peptide dNP2 or TAT]
SERCA2a reduction (immunostaining) (SERCA2a): completely inhibited
reduction of SERCA2a (western blotting) (SERCA2a): inhibited
stability of SERCA2a (SERCA2a; cycloheximide 5 μg/ml): restored nearly to the level observed under contractile conditions
phosphorylation of Akt and eNOS (eNOS and Akt; 100 nM okadaic acid followed by ψPLB-SE): further increased
phosphorylation of Akt serine 473 and threonine 308 (eNOS and Akt; 3 μM for 1 hour): increased
phosphorylation of eNOS serine 1177 (eNOS and Akt; 3 μM for 1 hour): increased
phosphorylation of eNOS threonine 495 (eNOS and Akt; 3 μM for 1 hour): reduced
eNOS phosphorylation (eNOS and Akt; Inhibitor IV 10 μM then ψPLB-SE): did not increase
phosphorylation of eNOS and Akt (eNOS and Akt; LY294002 50 μM followed by ψPLB-SE): increased
